# From US20020169326A1, “Esters and amides as PLA2 inhibitors” (FUJISAWA PHARMACEUTICAL COMPANY, LTD., priority 1995, published 2002)
# Key:
# [1] = molecular target: T1, human recombinant PLA2 group II enzyme (Homo sapiens, UniProt P14555); assay: Test on the inhibitory effect against phospholipase A2 (PLA2), fluorescent phospholipid substrate; assay type: biochemical; details: dose 1 × 10^−6 M; 10-pyrene PA-monomethyl ester substrate, room temperature, 10 minutes; read-out: Percent inhibition: inhibition (%)
# T1 sequence (P14555 21-144): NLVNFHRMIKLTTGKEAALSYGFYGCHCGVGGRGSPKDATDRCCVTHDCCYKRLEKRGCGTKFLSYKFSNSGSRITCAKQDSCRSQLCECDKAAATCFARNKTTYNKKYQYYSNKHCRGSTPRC
# Protocol: Test on the inhibitory effect against phospholipase A2 (PLA2)
# PLA2 activity was assayed with a fluorescent phospholipid analogue [1-palmitoyl-2-(10-pyrenyldecanoyl)-sn-glycero-3-monomethylphosphatidic acid(10-pyrene PA-monomethyl ester)] as a substrate, according to Radvanyi et al. (1989) with several modifications. Briefly, the reaction medium was prepared by sequential addition of 1160 μl of 50 mM Tris-HCl (pH 7.4) buffer containing 100 mM NaCl and 1 mM EDTA, 10 μl of 120 μM 10-pyrene PA-monomethyl ester in ethanol, 10 μl of drug sample in methanol and 10 μl of 1.2 μg/ml human recombinant PLA2 group II enzyme. The enzymatic reaction was then initiated with 10 μl of 0.84 M CaCl2. Following incubation at room temperature for 10 minutes, the reaction was terminated by addition of 25 μl of 1 M EDTA and 10 μl of 10 mg/ml β-cyclodextrin. Fluorescence measurements were carried out with a JASCO Corporation FP-777 spectrofluorometer. Excitation and emission wavelengths were 345 nm and 380 nm, respectively. All data are the average of at least duplicate determinations corrected for the spontaneous fluorescence of the reaction medium. Data were expressed as percent inhibition.
# F. Radvanyi, L. Jordan, F. Russo-Marie and C. Bon: A sensitive and continuous fluorometric assay for phospholipase A2 using pyrene-labeled phospholipids in the presence of serum albumin. […]
melting point [°C],inhibition at 1 µM [1] [%],SMILES
85 to 92,–,CCCN(C(=O)[C@H](CCC(=O)O)NC(=O)c1cn(Cc2ccccc2Cl)c2ccccc12)[C@H](CC(N)=O)Cc1ccc2ccccc2c1
166 to 168,–,CCCCc1ccc(C[C@@H](CC(N)=O)N(CCCC)C(=O)[C@H](CCCC(=O)O)NC(=O)c2cn(Cc3ccccc3Cl)c3ccccc23)cc1
77 to 82,–,CCCCc1ccc(C[C@@H](CC(N)=O)N(CCCC)C(=O)[C@H](CCCC(=O)O)NC(=O)c2cn(Cc3ccccc3)c3ccccc23)cc1
83 to 87,–,CCCCc1ccc(C[C@@H](CC(N)=O)N(CCC)C(=O)[C@H](CCCC(=O)O)NC(=O)c2cn(Cc3ccccc3Cl)c3ccccc23)cc1
82 to 88,–,CCCCc1ccc(C[C@@H](CC(N)=O)N(CCC)C(=O)[C@H](CCCC(=O)O)NC(=O)c2cn(Cc3ccccc3)c3ccccc23)cc1
79 to 96,–,CCCN(C(=O)[C@H](CCCC(=O)O)NC(=O)c1cn(Cc2ccccc2Cl)c2ccccc12)[C@H](CC(N)=O)Cc1ccc(C)cc1
83 to 92,–,CCCN(C(=O)[C@H](CCCC(=O)O)NC(=O)c1cn(Cc2ccccc2)c2ccccc12)[C@H](CC(N)=O)Cc1ccc(C)cc1
104 to 110,–,CCCCN(C(=O)[C@H](CCCC(=O)O)NC(=O)c1cn(Cc2ccccc2Cl)c2ccccc12)[C@H](CC(N)=O)Cc1ccc2ccccc2c1
90 to 96,–,CCCCN(C(=O)[C@H](CCCC(=O)O)NC(=O)c1cn(Cc2ccccc2)c2ccccc12)[C@H](CC(N)=O)Cc1ccc2ccccc2c1
110 to 114,–,CCN(C(=O)[C@H](CCCC(=O)O)NC(=O)c1cn(Cc2ccccc2Cl)c2ccccc12)[C@H](CC(N)=O)Cc1ccc2ccccc2c1
118 to 126,–,CCN(C(=O)[C@H](CCCC(=O)O)NC(=O)c1cn(Cc2cccc3ccccc23)c2ccccc12)[C@H](CC(N)=O)Cc1ccc2ccccc2c1
110 to 112,–,CCN(C(=O)[C@H](CCCC(=O)O)NC(=O)c1cn(Cc2ccccc2)c2ccccc12)[C@H](CC(N)=O)Cc1ccc2ccccc2c1
89 to 93,–,CCCCCN(C(=O)[C@H](CCCC(=O)O)NC(=O)c1cn(Cc2ccccc2)c2ccccc12)[C@H](CC(N)=O)Cc1ccc2ccccc2c1
112 to 116,–,CCCCCN(C(=O)[C@H](CCCC(=O)O)NC(=O)c1cn(Cc2cccc3ccccc23)c2ccccc12)[C@H](CC(N)=O)Cc1ccc2ccccc2c1
123 to 126,–,CCCN(C(=O)[C@H](CCCC(=O)O)NC(=O)c1cn(Cc2cccc3ccccc23)c2ccccc12)[C@H](CC(N)=O)Cc1ccc2ccccc2c1
91 to 94,–,CCCN(C(=O)[C@H](CCCC(=O)O)NC(=O)c1cn(Cc2ccccc2)c2ccccc12)[C@H](CC(N)=O)Cc1ccc2ccccc2c1
74 to 81,–,CCCCCCCCCCCCC[C@@H](CC(N)=O)N(Cc1ccccn1)C(=O)[C@H](CCCC(=O)O)NC(=O)c1ccc2ccccc2n1.Cl.Cl
59 to 62,–,CCCCCCCCCCCCC[C@@H](CC(N)=O)N(CCC)C(=O)[C@H](CCCC(=O)O)NC(=O)c1ccc2ccccc2n1.Cl
125 to 127,–,CCCCCCCCC[C@@H](CC(N)=O)N(CCCCC)C(=O)[C@H](CCCC(=O)O)NC(=O)c1cn(Cc2ccccc2)c2ccccc12
127 to 129,–,CCCCCC[C@@H](CC(N)=O)N(CCCCC)C(=O)[C@H](CCCC(=O)O)NC(=O)c1cn(Cc2ccccc2)c2ccccc12
124 to 127,–,CCCCCC[C@@H](CC(N)=O)N(CCCC)C(=O)[C@H](CCCC(=O)O)NC(=O)c1cn(Cc2ccccc2)c2ccccc12
153 to 156,–,CCCCCC[C@@H](CC(N)=O)N(CCCC)C(=O)[C@H](CCCC(=O)O)NC(=O)c1cn(Cc2ccccc2Cl)c2ccccc12

melting point [°C],inhibition at 1 µM [1] [%],SMILES
106 to 109,–,CCCCCC[C@@H](CC(N)=O)N(CCC)C(=O)[C@H](CCCC(=O)O)NC(=O)c1cn(Cc2cccc(Cl)c2)c2ccccc12
139 to 141,–,CCCCCC[C@@H](CC(N)=O)N(CCC)C(=O)[C@H](CCCC(=O)O)NC(=O)c1cn(Cc2cccc3ccccc23)c2ccccc12
78 to 95,–,CCCCCC[C@@H](CC(N)=O)N(CCC)C(=O)[C@H](CCCC(=O)O)NC(=O)c1cn(Cc2ccccn2)c2ccccc12
175 to 180,–,CCCCCC[C@@H](CC(N)=O)N(CCC)C(=O)[C@H](CCCC(=O)O)NC(=O)c1cn(Cc2ccccc2Cl)c2ccccc12
95 to 98,–,CCCC[C@@H](CC(N)=O)N(CCC)C(=O)[C@H](CCCC(=O)O)NC(=O)c1cn(Cc2ccccc2Cl)c2ccccc12
98 to 116,–,CCCC[C@@H](CC(N)=O)N(CCC)C(=O)[C@H](CCCC(=O)O)NC(=O)c1cn(Cc2cccc3ccccc23)c2ccccc12
110 to 116,–,CCCN(C(=O)[C@H](CCCC(=O)O)NC(=O)c1cn(Cc2ccccn2)c2ccccc12)[C@H](CC(N)=O)Cc1ccc2cc(CC)ccc2c1
105 to 116,–,CCCN(C(=O)[C@H](CCCC(=O)O)NC(=O)c1cn(Cc2ccccc2)c2ccccc12)[C@H](CC(N)=O)Cc1ccc2cc(CC)ccc2c1
100 to 116,–,CCCCN(C(=O)[C@H](CCCC(=O)O)NC(=O)c1cn(Cc2ccccc2)c2ccccc12)[C@H](CC(N)=O)Cc1ccc2cc(CC)ccc2c1
100 to 116,–,CCCCN(C(=O)[C@H](CCCC(=O)O)NC(=O)c1cn(Cc2ccccc2Cl)c2ccccc12)[C@H](CC(N)=O)Cc1ccc2cc(CC)ccc2c1
155 to 160,–,CCCCCCCCC[C@@H](CC(N)=O)N(CCC)C(=O)[C@H](CCCC(=O)O)NC(=O)c1cn(Cc2ccccc2)c2ccccc12
145 to 150,–,CCCCCCCCC[C@@H](CC(N)=O)N(CCC)C(=O)[C@H](CCCC(=O)O)NC(=O)c1cn(Cc2ccccc2Cl)c2ccccc12
79 to 81,–,CCCCCCCc1ccc(C[C@@H](CC(N)=O)N(CCCC)C(=O)[C@H](CCCC(=O)O)NC(=O)c2cn(Cc3ccccc3Cl)c3ccccc23)cc1
180 to 183,–,CCCCCC[C@@H](CC(N)=O)N(CC)C(=O)[C@H](CCCC(=O)O)NC(=O)c1cn(Cc2ccccc2Cl)c2ccccc12
80 to 85,–,CCCCCC[C@@H](CC(N)=O)N(CC)C(=O)[C@H](CCCC(=O)O)NC(=O)c1cn(Cc2ccccc2)c2ccccc12
105 to 110,–,CCCC[C@@H](CC(N)=O)N(CCCC)C(=O)[C@H](CCCC(=O)O)NC(=O)c1cn(Cc2ccccc2Cl)c2ccccc12
105 to 113,–,CCCC[C@@H](CC(N)=O)N(CCCC)C(=O)[C@H](CCCC(=O)O)NC(=O)c1cn(Cc2cccc3ccccc23)c2ccccc12
147 to 157,–,CCCCCC[C@@H](CC(N)=O)N(CCC)C(=O)[C@H](CCCC(=O)O)NC(=O)c1cn(Cc2ccccc2)c2ccccc12
–,100,"NC(=O)C[C@H](Cc1ccc2ccccc2c1)OC(=O)[C@H](CCCC(=O)O)NC(=O)c1cc2ccccc2cc1Cc1ccccc1 [Example 24, (3S)-3-[(2S)-2-(3-Benzylnaphthalen-2-ylcarbonylamino)-5-carboxypentanoyl]oxy-4-(2-naphthyl)butanamide]"
65 to 66,–,"CCCCCCCCCCCCC[C@@H](CC(N)=O)N(CC(C)C)C(=O)[C@H](CCCC(=O)O)NC(=O)c1ccc2ccccc2n1 [Example 149, (3S)-3-[N-Isobutyl-{(2S)-5-carboxy-2-(2-quinolylcarbonylamino)pentanoyl}amino]hexadecanamide]"
86 to 90,–,"Cc1ccc(Cn2c(C(=O)N[C@@H](CCCC(=O)O)C(=O)O[C@H](CC(N)=O)Cc3ccc4ccccc4c3)cc3ccccc32)cc1 [Example 165, (3S)-3-[(2S)-5-Carboxy-2-[{1-(4-methylbenzyl)indol-2-ylcarbonyl}amino]pentanoyl]oxy-4-(2-naphthyl)butanamide]"
147 to 157,–,"CN(CCC(N)=O)C(=O)[C@H](CCCC(=O)O)NC(=O)c1cc2ccccc2cc1Cc1ccccc1 [Example 180, 3-[N-Methyl-{(2S)-2-(3-benzylnaphthalen-2-ylcarbonyl)amino-5-carboxypentanoyl}amino]propanamide]"

SMILES,melting point [°C],inhibition at 1 µM [1] [%]
"CC(C)(C)OC(=O)N[C@@H](CCCC(=O)OCc1ccccc1)C(=O)O[C@H](CC(N)=O)Cc1ccc(-c2ccccc2)cc1 [Example 40, (3S)-3-[(2S)-5-Benzyloxycarbonyl-2-(tert-butoxycarbonylamino)pentanoyl]oxy-4-(4-biphenylyl)butanamide]",94 to 98,–
